From PubChem BioAssay (NCI)
Values joined by “and” are separate entries in the source; they are usually repeats but may differ in a detail not shown here. Equal values may be shown once.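 Five concentrations, 48 hours, 96-well plates. Here, GI50 denotes the concentration required for 50% inhibition of growth. TGI: total growth inhibition.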

Test system: SK-MEL-2 melanoma
Experiment: NCI tumour cell line growth inhibition, 48 h

SMILES | TGI [µM] | GI50
C=C(C)C(=O)O[C@@H]1C[C@@]2(C)O[C@@H]2C[C@H](O)/C(C)=C/[C@H]2OC(=O)C(=C)[C@@H]21 | > 100 | 
CC(=O)OC1(C)N=NC2(CCCCC2)O1 (stereo unspecified) | > 100 | 
Cc1ccc(-c2nc(N3CCNCC3)c3oc(-c4ccc(C)cc4)nc3n2)cc1 | > 60.9 | > 41.6 µM
[O-][Cl+3]([O-])([O-])[O-].[O]=[Ru]=[O].c1ccc(-c2ccccn2)nc1.c1ccc(-c2ccccn2)nc1 | > 100 | > 100 µM
CN(C)CC1CCC/C1=N/OC(=O)c1ccccc1 (stereo unspecified) | > 100 | 
CCOC(=O)C1Sc2ccccc2N=C1C (stereo unspecified) | > 100 | 
C/C=C/[C@@H]1O[C@@H]2COC(=O)C2=C[C@@H]1O | > 79.7 | 33.1 µM
O=C(NC1C=CCC2C(=O)N(c3ccccc3)C(=O)C12)OCc1ccccc1 (stereo unspecified) | > 100 | 
Cc1[cH-]c(=O)n(-c2ccccc2)n1.[Au+].[Au].c1ccc([PH+](c2ccccc2)c2ccccc2)cc1.c1ccc([PH+](c2ccccc2)c2ccccc2)cc1 | 23.5 | 4.64 µM and 8.64 µM
CC(=O)OCc1ccc2c(c1)C(O)NC(=O)O2 (stereo unspecified) | > 100 | 
CC1(C)CC(c2c[nH]c3ccccc23)=CC2=Nc3ccccc3C21O (stereo unspecified) | > 100 | 
CN1C(=O)C(=O)N2c3ccc(Cl)cc3C3(c4ccccc4)N=CC12O3 (stereo unspecified) | 30.5 | 
COc1ccc(CN2C(=O)C(Cl)=C(Nc3cccc(C(F)(F)F)c3)C2=O)cc1 | 27.3 | 12.3 µM
N#CCCC[Si]12OCCN(CCO1)CCO2 | > 100 | 
O=C(/C=C/c1c(O)ccc2ccccc12)c1ccc([N+](=O)[O-])cc1 | > 100 | 
CN1CCN(c2ccc(Nc3ncc(Cl)c(NC[C@@H]4CCCO4)n3)cc2)CC1 | 7.94 | 2.59 µM

Test system: A498 renal
Experiment: NCI tumour cell line growth inhibition, 48 h

SMILES | TGI [µM] | GI50 [µM]
C[C@@]1(O)CC[C@]2(C)C3CCCC3[C@H]12 (stereo partly specified) | > 100 | 
CC[C@@H](c1ccc(O)c(O)c1)[C@@H](CC)c1ccc(O)c(O)c1 | > 100 | 44.4
CC(=O)[O-].CC(=O)[O-].O=C(N/N=C/c1cc(Cl)cc(Cl)c1O)c1ccncc1.[Cu+2] | > 100 | 
C#Cc1cccc(Nc2nc3cc([N+](=O)[O-])ccc3nc2Nc2ccc(O)cc2)c1 | 13.7 | 3.08
O=C(Nc1nc(=S)[nH][nH]1)C(=O)C(C(=O)c1ccc2ccccc2c1)C1OC(=O)c2ccccc21 (stereo unspecified) | > 100 | 
CN(C)CC(O)c1ccc(/C=C/c2ccc(Cl)cc2)cc1 (stereo unspecified) | 2.66 | 1.37
CCOC(=O)C1=C(C)N(NC(=O)Nc2ccccc2)C2(N)N(NC(=O)Nc3ccccc3)C(C)=C(C(=O)OCC)C12C(=O)OCC (stereo unspecified) | > 100 | 
Cn1cc(-c2cc3c(N4CCN(c5ncc([C@@](C)(N)c6ccc(F)cc6)cn5)CC4)ncnn3c2)cn1 | > 100 | 6.24
CCCCCCCCCCSC(=N)N (tested in a mixture with another compound) | 19.7 | 6.55
O=C(O)CSc1n[nH]c(-c2ccccc2O)n1 | > 100 | 
Cc1nc(-c2nc(C)c(C(=O)NNC(=O)C[n+]3ccccc3)s2)sc1C(=O)NNC(=O)C[n+]1ccccc1 | > 100 | 
O=c1[nH]c(-c2ccccc2)nc2cc(Cl)ccc12 | > 100 | 
Cc1ccc(S(=O)(=O)N2CCC2c2ccccc2)cc1 (stereo unspecified) | > 100 | 
C/C(CN1C(=O)c2ccccc2C1=O)=N\NS(=O)(=O)c1ccc(Cl)cc1 | > 100 | 
C=C(C)C(=O)O[C@@H]1C[C@@]2(C)O[C@@H]2C[C@H](O)/C(C)=C/[C@H]2OC(=O)C(=C)[C@@H]21 | > 100 | 
CC(=O)OC1(C)N=NC2(CCCCC2)O1 (stereo unspecified) | > 100 | 
Cc1ccc(-c2nc(N3CCNCC3)c3oc(-c4ccc(C)cc4)nc3n2)cc1 | 32 | 15.8
[O-][Cl+3]([O-])([O-])[O-].[O]=[Ru]=[O].c1ccc(-c2ccccn2)nc1.c1ccc(-c2ccccn2)nc1 | > 100 | > 100
Cc1ccc(NC2=C3CCCCC3OC2=O)cc1 (stereo unspecified) | > 100 | 65.9
O=C1C(C(Nc2ccccc2)c2ccccc2)=C([O-])c2ccccc21.O=C1C(C(Nc2ccccc2)c2ccccc2)=C([O-])c2ccccc21.[Cu+2] (stereo unspecified) | > 100 | 30.6
CN(C)CC1CCC/C1=N/OC(=O)c1ccccc1 (stereo unspecified) | > 100 | 
CCOC(=O)C1Sc2ccccc2N=C1C (stereo unspecified) | > 100 | 
Cc1[cH-]c(=O)n(-c2ccccc2)n1.[Au+].[Au].c1ccc([PH+](c2ccccc2)c2ccccc2)cc1.c1ccc([PH+](c2ccccc2)c2ccccc2)cc1 | 38.9 | 23.9
CC1(C)CC(c2c[nH]c3ccccc23)=CC2=Nc3ccccc3C21O (stereo unspecified) | > 100 | 
CN1C(=O)C(=O)N2c3ccc(Cl)cc3C3(c4ccccc4)N=CC12O3 (stereo unspecified) | 22.9 | 
COc1ccc(CN2C(=O)C(Cl)=C(Nc3cccc(C(F)(F)F)c3)C2=O)cc1 | 9.02 | 2.61
N#CCCC[Si]12OCCN(CCO1)CCO2 | > 100 | 
O=C(/C=C/c1c(O)ccc2ccccc12)c1ccc([N+](=O)[O-])cc1 | > 100 | 
CN1CCN(c2ccc(Nc3ncc(Cl)c(NC[C@@H]4CCCO4)n3)cc2)CC1 | 3.36 | 0.803

Test system: UO-31 renal
Experiment: NCI tumour cell line growth inhibition, 48 h

SMILES | TGI [µM] | GI50 [µM]
C[C@@]1(O)CC[C@]2(C)C3CCCC3[C@H]12 (stereo partly specified) | > 100 | 
CC[C@@H](c1ccc(O)c(O)c1)[C@@H](CC)c1ccc(O)c(O)c1 | 21.4 | 4.12
CC(=O)[O-].CC(=O)[O-].O=C(N/N=C/c1cc(Cl)cc(Cl)c1O)c1ccncc1.[Cu+2] | > 100 | 
C#Cc1cccc(Nc2nc3cc([N+](=O)[O-])ccc3nc2Nc2ccc(O)cc2)c1 | 3.12 | 1.53
O=C(Nc1nc(=S)[nH][nH]1)C(=O)C(C(=O)c1ccc2ccccc2c1)C1OC(=O)c2ccccc21 (stereo unspecified) | 30.5 | 
CN(C)CC(O)c1ccc(/C=C/c2ccc(Cl)cc2)cc1 (stereo unspecified) | 2.61 | 1.3
Cc1nnc2ccnn2c1C | > 100 | > 100
CCOC(=O)C1=C(C)N(NC(=O)Nc2ccccc2)C2(N)N(NC(=O)Nc3ccccc3)C(C)=C(C(=O)OCC)C12C(=O)OCC (stereo unspecified) | > 100 | 
Cn1cc(-c2cc3c(N4CCN(c5ncc([C@@](C)(N)c6ccc(F)cc6)cn5)CC4)ncnn3c2)cn1 | > 100 | 1.84
CCCCCCCCCCSC(=N)N (tested in a mixture with another compound) | 13 | 3.02
O=C(O)CSc1n[nH]c(-c2ccccc2O)n1 | > 100 | 
Cc1nc(-c2nc(C)c(C(=O)NNC(=O)C[n+]3ccccc3)s2)sc1C(=O)NNC(=O)C[n+]1ccccc1 | 80.5 | 
CN(C)C=Nc1nc(=O)n(C2CCC(CO)O2)cc1F (stereo unspecified) | > 100 | 
O=c1[nH]c(-c2ccccc2)nc2cc(Cl)ccc12 | > 100 | 
Cc1ccc(S(=O)(=O)N2CCC2c2ccccc2)cc1 (stereo unspecified) | > 100 | 
CCCOc1nc(N)c2cnn(C3CCCCO3)c2n1 (stereo unspecified) | > 100 | 
C/C(CN1C(=O)c2ccccc2C1=O)=N\NS(=O)(=O)c1ccc(Cl)cc1 | > 100 | 

SMILES | TGI [µM] | GI50 [µM]
O=C(Nc1cccc(C(F)(F)F)c1)Nc1cccc(C(F)(F)F)c1 | 4.21 | 0.649
COc1ccc(/C=C/COC(C)=O)cc1OC | > 100 | 
Cc1ccc(-c2nc(N3CCNCC3)c3oc(-c4ccc(C)cc4)nc3n2)cc1 | 3.57 | 1.76
[O-][Cl+3]([O-])([O-])[O-].[O]=[Ru]=[O].c1ccc(-c2ccccn2)nc1.c1ccc(-c2ccccn2)nc1 | > 100 | > 100
Cc1ccc(NC2=C3CCCCC3OC2=O)cc1 (stereo unspecified) | > 100 | 27.6
O=C1C(C(Nc2ccccc2)c2ccccc2)=C([O-])c2ccccc21.O=C1C(C(Nc2ccccc2)c2ccccc2)=C([O-])c2ccccc21.[Cu+2] (stereo unspecified) | > 100 | 32.2
CN(C)CC1CCC/C1=N/OC(=O)c1ccccc1 (stereo unspecified) | > 100 | 
CCOC(=O)C1Sc2ccccc2N=C1C (stereo unspecified) | > 100 | 
C/C=C/[C@@H]1O[C@@H]2COC(=O)C2=C[C@@H]1O | > 51.6 | 4.21
O=C(NC1C=CCC2C(=O)N(c3ccccc3)C(=O)C12)OCc1ccccc1 (stereo unspecified) | > 100 | 
Cc1[cH-]c(=O)n(-c2ccccc2)n1.[Au+].[Au].c1ccc([PH+](c2ccccc2)c2ccccc2)cc1.c1ccc([PH+](c2ccccc2)c2ccccc2)cc1 | > 100 | 11.6
CC(=O)OCc1ccc2c(c1)C(O)NC(=O)O2 (stereo unspecified) | > 100 | 
CC1(C)CC(c2c[nH]c3ccccc23)=CC2=Nc3ccccc3C21O (stereo unspecified) | > 100 | 
CN1C(=O)C(=O)N2c3ccc(Cl)cc3C3(c4ccccc4)N=CC12O3 (stereo unspecified) | 18.1 | 
COc1ccc(CN2C(=O)C(Cl)=C(Nc3cccc(C(F)(F)F)c3)C2=O)cc1 | 32 | 5.54
N#CCCC[Si]12OCCN(CCO1)CCO2 | > 100 | 
O=C(/C=C/c1c(O)ccc2ccccc12)c1ccc([N+](=O)[O-])cc1 | > 61.7 | 
